The target in the test is T1, human S1P1 receptor (Homo sapiens, UniProt P21453).
T1 construct: expressed in transfected cells; membranes used
Description: GTP γ35S binding assay for S1P1 activity. Format: biochemical. The following applies: membranes of cells stably expressing the S1P1 receptor, test concentrations 0.08 to 5,000 nM, 30 min at 25° C. Here is the method:
Compounds were synthesized and tested for S1P1 activity using the GTP γ^35S binding assay. These compounds may be assessed for their ability to activate or block activation of the human S1P1 receptor in cells stably expressing the S1P1 receptor. GTP γ^35S binding was measured in the medium containing (mM) HEPES 25, pH 7.4, MgCl2 10, NaCl 100, dithitothreitol 0.5, digitonin 0.003%, 0.2 nM GTP γ^35S, and 5 μg membrane protein in a volume of 150 μl. Test compounds were included in the concentration range from 0.08 to 5,000 nM unless indicated otherwise. Membranes were incubated with 100 μM 5′-adenylylimmidodiphosphate for 30 min, and subsequently with 10 μM GDP for 10 min on ice. Drug solutions and membrane were mixed, and then reactions were initiated by adding GTP γ^35S and continued for 30 min at 25° C. Reaction mixtures were filtered over Whatman GF/B filters under vacuum, and washed three times with 3 mL of ice-cold buffer (HEPES 25, pH7.4, MgCl2 10 and NaCl 100). Filters were dried and mixed with scintillant, and counted for ^35S activity using a β-counter. Agonist-induced GTP γ^35S binding was obtained by subtracting that in the absence of agonist. Binding data were analyzed using a non-linear regression method. In case of antagonist assay, the reaction mixture contained 10 nM S1P in the presence of test antagonist at concentrations ranging from 0.08 to 5000 nM.
Activity potency: S1P1 receptor from GTP γ^35S: nM, (EC50),
(In general: Binding of GTPγS marks nucleotide exchange on a G protein.)

For eight compounds, EC50 results are on record in patent US20140228325A1, “ALKENE DERIVATIVES AS SPHINGOSINE 1-PHOSPHATE (S1P) RECEPTOR MODULATORS” (Allergan, Inc., priority 2013, published 2014).

The EC50 is the concentration that produces a half-maximal response.

T1 sequence (P21453 whole entry): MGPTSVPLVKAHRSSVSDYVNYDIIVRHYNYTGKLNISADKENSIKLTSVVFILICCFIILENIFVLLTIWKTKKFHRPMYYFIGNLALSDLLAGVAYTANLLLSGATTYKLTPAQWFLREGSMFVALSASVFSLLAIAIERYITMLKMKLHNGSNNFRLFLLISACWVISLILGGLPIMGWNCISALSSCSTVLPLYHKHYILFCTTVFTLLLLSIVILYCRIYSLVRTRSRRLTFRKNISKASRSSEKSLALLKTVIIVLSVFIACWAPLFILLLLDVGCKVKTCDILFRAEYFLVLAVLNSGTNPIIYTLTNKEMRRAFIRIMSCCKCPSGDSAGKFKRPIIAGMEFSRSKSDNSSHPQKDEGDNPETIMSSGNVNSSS

The compound `Cc1ccc(/C=C(\CCCOc2ccc(CNCCCP(=O)(O)O)cc2)c2cccc(Cl)c2)cc1C` [Compound 1, {3-[(4-{[(4E)-4-(3-Chlorophenyl)-5-(3,4-dimethylphenyl)pent-4-en-1-yl]oxy}benzyl)amino]propyl}phosphonic acid] had an EC50 of 9.65 nM. This lies in the single-digit nanomolar range.
With `Cc1ccc(/C=C(\CCCOc2ccc(CNCCC(=O)O)cc2)c2cccc(Cl)c2)cc1C` [Compound 2, 3-[(4-{[(4E)-4-(3-Chlorophenyl)-5-(3,4-dimethylphenyl)pent-4-en-1-yl]oxy}benzyl)amino]propanoic acid], the midpoint of the response, the EC50, lay at 73.2 nM. Against the preceding compound, the EC50 is about 7.6-fold higher.
The value for `Cc1ccc(/C=C(\CCCOc2ccc(CNCCC(=O)O)cc2)c2cc(F)cc(F)c2)cc1C` [Compound 3, 3-[(4-{[(4E)-4-(3,5-Difluorophenyl)-5-(3,4-dimethylphenyl)pent-4-en-1-yl]oxy}benzyl)amino]propanoic acid] was 51.9 nM; that for `Cc1ccc(/C=C(\CCCOc2ccc(CNCCCP(=O)(O)O)cc2)c2cc(F)cc(F)c2)cc1C` [Compound 4, {3-[(4-{[(4E)-4-(3,5-Difluorophenyl)-5-(3,4-dimethylphenyl)pent-4-en-1-yl]oxy}benzyl)amino]propyl}phosphonic acid] was 7.84 nM; that for `Cc1ccc(/C=C(\CCC[S+]([O-])c2ccc(CNCCC(=O)O)cc2)c2cccc(Cl)c2)cc1C` (centres unmarked) [Compound 5, 3-[(4-{[(4E)-4-(3-Chlorophenyl)-5-(3,4-dimethylphenyl)pent-4-en-1-yl]sulfinyl}benzyl)amino]propanoic acid] was 450 nM.
Turning to `Cc1ccc(/C=C(\CCC[S+]([O-])c2ccc(CNCCC(=O)O)cc2)c2cc(F)cc(F)c2)cc1C` (centres unmarked) [Compound 7, 3-[(4-{[(4E)-4-(3,5-Difluorophenyl)-5-(3,4-dimethylphenyl)pent-4-en-1-yl]sulfinyl}benzyl)amino]propanoic acid], the response was half-maximal at 111 nM (EC50).
As for `Cc1ccc(/C=C(\CCCSc2ccc(CNCCC(=O)O)cc2)c2cc(F)cc(F)c2)cc1C` [Compound 8, 3-[(4-{[(4E)-4-(3,5-Difluorophenyl)-5-(3,4-dimethylphenyl)pent-4-en-1-yl]thio}benzyl)amino]propanoic acid], a half-maximal effect (EC50) was put at 10.2 nM.
The value for `Cc1ccc(/C=C(\CCCCSc2ccc(CNCCC(=O)O)cc2)c2cc(F)cc(F)c2)cc1C` [Compound 9, 3-[(4-{[(5E)-5-(3,5-Difluorophenyl)-6-(3,4-dimethylphenyl)hex-5-en-1-yl]thio}benzyl)amino]propanoic acid] was 639 nM.
